{"source": "patent US20040037806A1", "about": "“Aldosterone blocker therapy to prevent or treat inflammation-related disorders” (Pharmacia Corporation, priority 2002, published 2004)", "assay_type_in_all_cases": "in vivo, rat", "key": {"[1]": {"system": "osteopontin", "test": "Assay A: osteopontin immunostaining of hearts", "conditions": "angiotensin II-infused, saline-drinking Wistar rats; eplerenone 100 mpk; aldosterone replacement in adrenalectomized rats"}, "[2]": {"system": "Osteopontin, ED-1, CD-3, ICAM-1, VCAM-1", "test": "Assay C: immunohistochemistry of myocardial tissue", "conditions": "aldosterone+salt alone or with eplerenone 100 mg/kg/day", "experimental": "The procedure of Assay B was expanded upon in a further study. […] Myocardial tissue from animals in each treatment group was examined after 7, 14, or 30 days of treatment. […] Lesions were preceded by the expression and progressive upregulation of proinflammatory molecules.\n(§1) Potassium chloride supplementation was added to the saline solution in order to prevent the potential hypokalemia associated with aldosterone excess.\nTreatment At the time of the surgery, an Alzet 2002 osmotic minipump (Alza Corp., Palo Alto, Calif.) containing either vehicle (9% ethanol/87% propylene glycol/4% dH2O) or 1.0 mg/mL d-aldosterone (Sigma Chemical, St. Louis, Mo.) was inserted subcutaneously at the nape of the neck. Aldosterone was administered at a dose of 0.75 µg/hour. […] Animals were sacrificed from each group (n=8-13) after 7, 14, or 30 days of treatment.\nFive μm sections were deparaffinized in xylene (two, 5-10 min incubations) and rehydrated by 3 min incubations in ethanol as follows: two incubations in 100% ethanol followed by two incubations in 95% alcohol and one incubation in 70% alcohol. Once hydrated, sections were rinsed in tap water for 1 min and distilled water for 1 min. Endogenous peroxide activity was blocked by placing slides in 3.0% H2O2 for 15 min followed by a 5 min rinse in distilled water. Slides were processed for antigen retrieval using citric acid, pH6.0. […]"}, "[3]": {"system": "Collagen I", "test": "Assay C: Collagen I mRNA, TaqMan", "conditions": "30 days, compared to vehicle+salt controls", "experimental": "The procedure of Assay B was expanded upon in a further study. […] Myocardial tissue from animals in each treatment group was examined after 7, 14, or 30 days of treatment.\nas §1\nTreatment At the time of the surgery, an Alzet 2002 osmotic minipump (Alza Corp., Palo Alto, Calif.) containing either vehicle (9% ethanol/87% propylene glycol/4% dH2O) or 1.0 mg/mL d-aldosterone (Sigma Chemical, St. Louis, Mo.) was inserted subcutaneously at the nape of the neck. Aldosterone was administered at a dose of 0.75 µg/hour. […]\nThe fluorogenic 5′-nuclease assay (TaqMan PCR) using Applied Biosystems' 7700 Sequence Detection System (Applied Biosystems, Foster City, Calif.) allowed for real time detection/quantitation of a specific gene by monitoring the increase in fluorescence of a gene-specific, dye-labeled oligonucleotide probe. […] When the probe was annealed to the target gene, fluorescence of 6FAM was prevented by the close proximity of TAMRA. The exonuclease activity of Taq polymerase released the dyes from the oligonucleotide probe by displacing the probe from the target sequence resulting in fluorescence excitation in direct proportion to the amount of target message present. […]"}, "[4]": {"system": "osteopontin", "test": "Assay B: osteopontin immunohistochemistry in the heart", "conditions": "aldosterone-infused, saline-drinking, uninephrectomized rats, eplerenone 100 mpk p.o, increased dietary potassium", "experimental": "Assay B: In Vivo Aldosterone Infusion Model\nDetermination of osteopontin and COX-2 was performed by quantitative RT-PCR (Taqman). Osteopontin was also identified in the heart by immunohistochemistry."}, "[5]": {"test": "Assay A: angiotensin II infusion model, systolic blood pressure by tail-cuff", "conditions": "Wistar rats, 1% NaCl to drink, angiotensin II 25 ng/min sc, 4 weeks; eplerenone 100 mpk; aldosterone given to adrenalectomized, dexamethasone-treated rats"}}, "note": "“Also recorded” adds a separate entry of the source.", "data": [{"smiles": "COC(=O)[C@@H]1CC2=CC(=O)CC[C@]2(C)[C@@]23O[C@@H]2C[C@@]2(C)[C@@H](CC[C@@]24CCC(=O)O4)[C@H]13", "note": "[eplerenone]", "values": [{"measurement": "Osteopontin expression in the heart (immunostaining)", "setting": "[1]", "result": "prevented osteopontin expression"}, {"measurement": "Immunohistochemical staining of marker proteins in myocardial tissue", "setting": "[2]", "result": "markedly blunted"}, {"measurement": "Collagen type-I message", "setting": "[3]", "result": "modest increase"}, {"measurement": "Osteopontin expression in the heart (immunostaining)", "setting": "[4]", "result": "prevention by eplerenone of induction of osteopontin expression; also recorded: prevention by eplerenone of osteopontin upregulation"}, {"measurement": "Osteopontin expression in the heart (immunostaining)", "setting": "[4]; listed as Eplerenone", "result": "prevented the expression of osteopontin"}, {"measurement": "Systolic blood pressure", "setting": "[5]", "result": "Neither eplerenone nor adrenalectomy reduced blood pressure"}]}, {"smiles": "C[C@]12CCC(=O)C=C1CC[C@@H]1[C@@H]2[C@@H](O)C[C@]2(C=O)[C@@H](C(=O)CO)CC[C@@H]12", "note": "[aldosterone]", "values": [{"measurement": "Osteopontin expression in the heart (immunostaining)", "setting": "[1]", "result": "restored osteopontin expression"}, {"measurement": "Immunohistochemical staining of marker proteins in myocardial tissue", "setting": "[2]", "result": "Significant expression of osteopontin"}, {"measurement": "Collagen type-I message", "setting": "[3]", "result": "modest increase"}, {"measurement": "Osteopontin expression in the heart (immunostaining)", "setting": "[4]", "result": "clearly identified in the media of coronary arteries"}, {"measurement": "Systolic blood pressure", "setting": "[5]", "result": "increased blood pressure"}]}]}
